What was measured:
[1] = tested on: saffron ovary; assay: Tissue culture of saffron ovary in MS medium with alanine; visual rating of stigma-like tissue (Example 3); format: cell-based; conditions: BA 10 ppm, 7 weeks, scale 0-10
Source text: (§1) The relative amount of the stigma-like tissue was visually determined and rated according to an 11-part divided scale, taking an amount corresponding to the amount of naturally-occurring three stigmata containing saffron pigment as 10, nil as 0, and equally dividing the interval therebetween.
(§2) The relative color density of the stigma-like tissue was visually determined, and rated according to an 11-part divided scale, taking a density corresponding to the density of a naturally-occurring stigma containing saffron pigment as 10 and colorlessness as 0, and equally dividing the interval therebetween.
(§3) Guaran powder was then added to the medium in a concentration of 0.2% by weight. The medium was sterilized at 120° C. for 20 minutes in an autoclave. The sterilized medium was aloquated into sterile plastic plates having a diameter of 55 mm, followed by cooling to solidify.
(§4) A bud of a saffron flower before opening was harvested, sterilized by soaking in a 0.5 vol% sodium hypochlorite aqueous solution for 10 minutes, and washed with water. The ovary portion of the bud was taken out and cut to pieces of about 8 mm. Each cut piece was seeded on each of the above-prepared solid media.
(§5) The ovary was subjected to static culture at 25° C. in a dark room. Production of a stigma-like tissue was recognized in the cultures in about 4 weeks at the soonest. In 7 weeks, the stigma-like tissue grew and assumed a red color, indicating considerable production of the saffron pigment.
(§6) After 7 weeks of culturing, the tissue cultures were visually observed and evaluated in the same manner as in Example 1.

[2] = tested on: saffron ovary; assay: Tissue culture of saffron ovary in Linsmaier-Skoog medium with alanine; visual rating of stigma-like tissue (Example 4); format: cell-based; conditions: Ki 2 ppm, scale 0-10
Source text: as §1, §2, §3, §4, §5, §6
(§7) A saffron ovary was cultured in the same manner as in Example 3, except for replacing the MS medium with a Linsmaier-Skoog medium to which Ki, NAA and alanine were added in the concentrations shown in Table 11.

[3] = tested on: corolla tube of a saffron; assay: Tissue culture of saffron corolla tube with alanine; visual rating of stigma-like tissue (Example 5); format: cell-based; conditions: Ki 2 ppm, Linsmaier-Skoog medium, scale 0-10
Source text: as §1, §2, §3, §4, §6, §7
The procedure of Example 4 was repeated except for replacing the ovary with a corolla tube of a saffron.

[4] = tested on: style of saffron; assay: Tissue culture of saffron style with alanine; visual rating of stigma-like tissue (Example 6); format: cell-based; conditions: Ki 2 ppm, Linsmaier-Skoog medium, scale 0-10
Source text: as §1, §2, §3, §4, §6, §7
The procedure of Example 4 was repeated except for replacing the overy with a style of saffron.

[5] = tested on: stigma of saffran; assay: Tissue culture of saffron stigma with alanine; visual rating of stigma-like tissue (Example 7); format: cell-based; conditions: Ki 2 ppm, Linsmaier-Skoog medium, scale 0-10
Source text: as §1, §2, §3, §4, §6, §7
The procedure of Example 4 was repeated except for replacing the ovary with a stigma of saffran.

[6] = tested on: female organ and/or corolla tube of saffron; assay: Tissue culture of female organ and/or corolla tube of saffron in the presence of alanine; format: cell-based; conditions: compared with cultures in the absence of alanine
Source text: In this embodiment, a female organ and/or a corolla tube of a saffron flower is tissue-cultured in a medium containing a plant hormone and alanine in a bright or dark room.
Female organs and/or corolla tubes to be cultured are harvested from saffron flowers before opening, i.e., flowers in the bud and subjected to tissue culture in the manner as in the first embodiment by using a medium containing alanine to produce and proliferate the stigma-like tissue. When using female organs and/or corolla tubes harvested after flower opening, the amount of the stigma-like tissue produced tends to be reduced.
In cases where female organs and/or corolla tubes are cultured in the second embodiment, the culture medium should further contain alanine to accelerate the production of the stigma-like tissue. Alanine is preferably added to a medium in concentrations of from about 0.005 to 10g/l, more preferably from 0.1 to 10g/l. The alanine to be added may be any of D- or L-optical isomers and a racemate.
Tissue culture according to the present invention can be performed either by static culture using a solid medium or by shake culture using a liquid medium. The solid medium includes a medium containing about 0.8% by weight of agar and a Murashige-Skoog medium containing 0.2% by weight of guaran. The culturing may be in either a bright room or a dark room. […]

[7] = tested on: undifferentiated callus of saffron bulb; conditions: undifferentiated callus culture of saffron bulb; symposium 1987; cited from earlier work

## C[C@H](N)C(=O)O (racemic) [Alanine, alanine]
[1]; alanine 0.005 g/l, NAA 0.1 ppm
  Relative Color Density of Stigma-Like Tissue Containing Saffron Pigment: 8
  Relative Production of Stigma-Like Tissue Containing Saffron Pigment: 4
[1]; alanine 0.005 g/l, NAA 1.0 ppm
  Relative Color Density of Stigma-Like Tissue Containing Saffron Pigment: 8
  Relative Production of Stigma-Like Tissue Containing Saffron Pigment: 4
[1]; alanine 0.01 g/l, NAA 0.1 ppm
  Relative Color Density of Stigma-Like Tissue Containing Saffron Pigment: 8
  Relative Production of Stigma-Like Tissue Containing Saffron Pigment: 5
[1]; alanine 0.01 g/l, NAA 1.0 ppm
  Relative Color Density of Stigma-Like Tissue Containing Saffron Pigment: 8
  Relative Production of Stigma-Like Tissue Containing Saffron Pigment: 5
[1]; alanine 0.1 g/l, NAA 0.1 ppm
  Relative Color Density of Stigma-Like Tissue Containing Saffron Pigment: 9
  Relative Production of Stigma-Like Tissue Containing Saffron Pigment: 5
[1]; alanine 0.1 g/l, NAA 1.0 ppm
  Relative Color Density of Stigma-Like Tissue Containing Saffron Pigment: 9
  Relative Production of Stigma-Like Tissue Containing Saffron Pigment: 6
[1]; alanine 1.0 g/l, NAA 0.1 ppm
  Relative Color Density of Stigma-Like Tissue Containing Saffron Pigment: 9
  Relative Production of Stigma-Like Tissue Containing Saffron Pigment: 7
[1]; alanine 1.0 g/l, NAA 1.0 ppm
  Relative Color Density of Stigma-Like Tissue Containing Saffron Pigment: 9
  Relative Production of Stigma-Like Tissue Containing Saffron Pigment: 8
[1]; alanine 5.0 g/l, NAA 0.1 ppm
  Relative Color Density of Stigma-Like Tissue Containing Saffron Pigment: 9
  Relative Production of Stigma-Like Tissue Containing Saffron Pigment: 6
[1]; alanine 5.0 g/l, NAA 1.0 ppm
  Relative Color Density of Stigma-Like Tissue Containing Saffron Pigment: 8
  Relative Production of Stigma-Like Tissue Containing Saffron Pigment: 6
[1]; alanine 10.0 g/l, NAA 0.1 ppm
  Relative Color Density of Stigma-Like Tissue Containing Saffron Pigment: 8
  Relative Production of Stigma-Like Tissue Containing Saffron Pigment: 5
[1]; alanine 10.0 g/l, NAA 1.0 ppm
  Relative Color Density of Stigma-Like Tissue Containing Saffron Pigment: 8
  Relative Production of Stigma-Like Tissue Containing Saffron Pigment: 5
[1]; alanine 20.0 g/l, NAA 0.1 ppm
  Relative Color Density of Stigma-Like Tissue Containing Saffron Pigment: 8
  Relative Production of Stigma-Like Tissue Containing Saffron Pigment: 3
[1]; alanine 20.0 g/l, NAA 1.0 ppm
  Relative Color Density of Stigma-Like Tissue Containing Saffron Pigment: 7
  Relative Production of Stigma-Like Tissue Containing Saffron Pigment: 4
[2]; alanine 0.01 g/l, NAA 0.1 ppm
  Relative Color Density of Stigma-Like Tissue Containing Saffron Pigment: 5
  Relative Production of Stigma-Like Tissue Containing Saffron Pigment: 3
[2]; alanine 0.01 g/l, NAA 1.0 ppm
  Relative Color Density of Stigma-Like Tissue Containing Saffron Pigment: 6
  Relative Production of Stigma-Like Tissue Containing Saffron Pigment: 3
[2]; alanine 0.1 g/l, NAA 0.1 ppm
  Relative Color Density of Stigma-Like Tissue Containing Saffron Pigment: 6
  Relative Production of Stigma-Like Tissue Containing Saffron Pigment: 4
[2]; alanine 0.1 g/l, NAA 1.0 ppm
  Relative Color Density of Stigma-Like Tissue Containing Saffron Pigment: 6
  Relative Production of Stigma-Like Tissue Containing Saffron Pigment: 4
[2]; alanine 1.0 g/l, NAA 0.1 ppm
  Relative Color Density of Stigma-Like Tissue Containing Saffron Pigment: 7
  Relative Production of Stigma-Like Tissue Containing Saffron Pigment: 5
[2]; alanine 1.0 g/l, NAA 1.0 ppm
  Relative Color Density of Stigma-Like Tissue Containing Saffron Pigment: 7
  Relative Production of Stigma-Like Tissue Containing Saffron Pigment: 5
[2]; alanine 5.0 g/l, NAA 0.1 ppm
  Relative Color Density of Stigma-Like Tissue Containing Saffron Pigment: 6
  Relative Production of Stigma-Like Tissue Containing Saffron Pigment: 5
[2]; alanine 5.0 g/l, NAA 1.0 ppm
  Relative Color Density of Stigma-Like Tissue Containing Saffron Pigment: 7
  Relative Production of Stigma-Like Tissue Containing Saffron Pigment: 5
[3]; alanine 0.01 g/l, NAA 0.1 ppm
  Relative Color Density of Stigma-Like Tissue Containing Saffron Pigment: 6
  Relative Production of Stigma-Like Tissue Containing Saffron Pigment: 4
[3]; alanine 0.01 g/l, NAA 1.0 ppm
  Relative Color Density of Stigma-Like Tissue Containing Saffron Pigment: 6
  Relative Production of Stigma-Like Tissue Containing Saffron Pigment: 4
[3]; alanine 0.1 g/l, NAA 0.1 ppm
  Relative Color Density of Stigma-Like Tissue Containing Saffron Pigment: 7
  Relative Production of Stigma-Like Tissue Containing Saffron Pigment: 5
[3]; alanine 0.1 g/l, NAA 1.0 ppm
  Relative Color Density of Stigma-Like Tissue Containing Saffron Pigment: 7
  Relative Production of Stigma-Like Tissue Containing Saffron Pigment: 5
[3]; alanine 1.0 g/l, NAA 0.1 ppm
  Relative Color Density of Stigma-Like Tissue Containing Saffron Pigment: 7
  Relative Production of Stigma-Like Tissue Containing Saffron Pigment: 6
[3]; alanine 1.0 g/l, NAA 1.0 ppm
  Relative Color Density of Stigma-Like Tissue Containing Saffron Pigment: 7
  Relative Production of Stigma-Like Tissue Containing Saffron Pigment: 6
[3]; alanine 5.0 g/l, NAA 0.1 ppm
  Relative Color Density of Stigma-Like Tissue Containing Saffron Pigment: 7
  Relative Production of Stigma-Like Tissue Containing Saffron Pigment: 6
[3]; alanine 5.0 g/l, NAA 1.0 ppm
  Relative Color Density of Stigma-Like Tissue Containing Saffron Pigment: 7
  Relative Production of Stigma-Like Tissue Containing Saffron Pigment: 6
[4]; alanine 0.1 g/l, NAA 0.1 ppm
  Relative Density of Stigma-Like Tissue Containing Saffron Pigment: 6
  Relative Production of Stigma-Like Tissue Containing Saffron Pigment: 4
[4]; alanine 0.1 g/l, NAA 1.0 ppm
  Relative Density of Stigma-Like Tissue Containing Saffron Pigment: 7
  Relative Production of Stigma-Like Tissue Containing Saffron Pigment: 5
[4]; alanine 1.0 g/l, NAA 0.1 ppm
  Relative Density of Stigma-Like Tissue Containing Saffron Pigment: 7
  Relative Production of Stigma-Like Tissue Containing Saffron Pigment: 5
[4]; alanine 1.0 g/l, NAA 1.0 ppm
  Relative Density of Stigma-Like Tissue Containing Saffron Pigment: 7
  Relative Production of Stigma-Like Tissue Containing Saffron Pigment: 6
[4]; alanine 5.0 g/l, NAA 0.1 ppm
  Relative Density of Stigma-Like Tissue Containing Saffron Pigment: 7
  Relative Production of Stigma-Like Tissue Containing Saffron Pigment: 5
[4]; alanine 5.0 g/l, NAA 1.0 ppm
  Relative Density of Stigma-Like Tissue Containing Saffron Pigment: 8
  Relative Production of Stigma-Like Tissue Containing Saffron Pigment: 6
[5]; alanine 0.1 g/l, NAA 0.1 ppm
  Relative Color Density of Stigma-Like Tissue Containing Saffron Pigment: 6
  Relative Production of Stigma-Like Tissue Containing Saffron Pigment: 3
[5]; alanine 0.1 g/l, NAA 1.0 ppm
  Relative Color Density of Stigma-Like Tissue Containing Saffron Pigment: 8
  Relative Production of Stigma-Like Tissue Containing Saffron Pigment: 4
[5]; alanine 1.0 g/l, NAA 0.1 ppm
  Relative Color Density of Stigma-Like Tissue Containing Saffron Pigment: 8
  Relative Production of Stigma-Like Tissue Containing Saffron Pigment: 4
[5]; alanine 1.0 g/l, NAA 1.0 ppm
  Relative Color Density of Stigma-Like Tissue Containing Saffron Pigment: 8
  Relative Production of Stigma-Like Tissue Containing Saffron Pigment: 4
[5]; alanine 5.0 g/l, NAA 0.1 ppm
  Relative Color Density of Stigma-Like Tissue Containing Saffron Pigment: 7
  Relative Production of Stigma-Like Tissue Containing Saffron Pigment: 4
[5]; alanine 5.0 g/l, NAA 1.0 ppm
  Relative Color Density of Stigma-Like Tissue Containing Saffron Pigment: 7
  Relative Production of Stigma-Like Tissue Containing Saffron Pigment: 4
[6]
  quantities of stigma-like tissue and the pigment: larger quantities of stigma-like tissue and the pigment
[7]
  effect of addition of alanine to the medium: discharge of a red substance into the medium

From patent publication US5085995A, “Method for producing saffron stigma-like tissue and method for producing useful components from saffron stigma-like tissue” (Somar Corporation, priority 1989, dated 1992)
